Source: patent US20260242353A1, “HETEROARYL DERIVATIVES AS DDRs INHIBITORS” (CHIESI FARMACEUTICI S.P.A., priority 2022, published 2026)

Experiments:
[1] = molecular target: T1, DDR1 (Homo sapiens, UniProt Q08345); test: LanthaScreen Europium Kinase Binding assay, DDR1; conditions: 5 nM DDR1, 20 nM Kinase Tracer 178, 1 h at rt; Ki from IC50 by Cheng-Prusoff; read-out: Ki DDR1
T1 construct: purchased Carna Biosciences
How it was run: (§1)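 Compounds were incubated 1 h at rt with 5 nM DDR1 plus 20 nM Kinase Tracer 178, or 5 nM DDR2 plus 10 nM tracer, and 2 nM Eu anti-GST antibody in HEPES pH 7.5 buffer. Read-out was the TR-FRET 665/615 nm ratio. IC50 came from a 4-parameter fit and was converted to Ki by Cheng-Prusoff.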

[2] = molecular target: T2, DDR2 (Homo sapiens, UniProt Q16832); test: LanthaScreen Europium Kinase Binding assay, DDR2; conditions: 5 nM DDR2, 10 nM Kinase Tracer 178, 1 h at rt; Ki from IC50 by Cheng-Prusoff; read-out: Ki DDR2
T2 construct: purchased Life Technologies
T2 sequence (Q16832 22-855): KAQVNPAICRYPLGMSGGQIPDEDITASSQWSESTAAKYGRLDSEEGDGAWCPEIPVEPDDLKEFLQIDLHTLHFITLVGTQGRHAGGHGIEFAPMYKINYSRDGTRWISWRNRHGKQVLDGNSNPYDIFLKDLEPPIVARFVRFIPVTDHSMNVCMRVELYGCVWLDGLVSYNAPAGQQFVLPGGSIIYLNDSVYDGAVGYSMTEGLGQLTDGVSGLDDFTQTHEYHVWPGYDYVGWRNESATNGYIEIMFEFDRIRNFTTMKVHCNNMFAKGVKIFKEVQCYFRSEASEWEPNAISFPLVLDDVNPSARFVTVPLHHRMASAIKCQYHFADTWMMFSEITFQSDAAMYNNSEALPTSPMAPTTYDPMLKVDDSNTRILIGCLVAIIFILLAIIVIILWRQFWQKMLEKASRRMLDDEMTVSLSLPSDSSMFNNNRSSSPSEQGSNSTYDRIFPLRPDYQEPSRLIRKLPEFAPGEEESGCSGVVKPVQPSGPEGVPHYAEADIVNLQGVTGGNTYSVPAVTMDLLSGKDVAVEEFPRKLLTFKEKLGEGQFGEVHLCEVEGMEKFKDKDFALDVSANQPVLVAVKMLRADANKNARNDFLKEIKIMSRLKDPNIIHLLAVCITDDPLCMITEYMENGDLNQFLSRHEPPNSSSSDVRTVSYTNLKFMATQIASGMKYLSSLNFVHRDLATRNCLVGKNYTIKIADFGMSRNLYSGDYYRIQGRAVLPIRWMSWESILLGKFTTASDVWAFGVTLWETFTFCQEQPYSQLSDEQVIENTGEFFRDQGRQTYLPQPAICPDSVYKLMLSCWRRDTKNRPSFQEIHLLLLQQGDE
How it was run: as §1

T1 sequence (Q08345 19-913): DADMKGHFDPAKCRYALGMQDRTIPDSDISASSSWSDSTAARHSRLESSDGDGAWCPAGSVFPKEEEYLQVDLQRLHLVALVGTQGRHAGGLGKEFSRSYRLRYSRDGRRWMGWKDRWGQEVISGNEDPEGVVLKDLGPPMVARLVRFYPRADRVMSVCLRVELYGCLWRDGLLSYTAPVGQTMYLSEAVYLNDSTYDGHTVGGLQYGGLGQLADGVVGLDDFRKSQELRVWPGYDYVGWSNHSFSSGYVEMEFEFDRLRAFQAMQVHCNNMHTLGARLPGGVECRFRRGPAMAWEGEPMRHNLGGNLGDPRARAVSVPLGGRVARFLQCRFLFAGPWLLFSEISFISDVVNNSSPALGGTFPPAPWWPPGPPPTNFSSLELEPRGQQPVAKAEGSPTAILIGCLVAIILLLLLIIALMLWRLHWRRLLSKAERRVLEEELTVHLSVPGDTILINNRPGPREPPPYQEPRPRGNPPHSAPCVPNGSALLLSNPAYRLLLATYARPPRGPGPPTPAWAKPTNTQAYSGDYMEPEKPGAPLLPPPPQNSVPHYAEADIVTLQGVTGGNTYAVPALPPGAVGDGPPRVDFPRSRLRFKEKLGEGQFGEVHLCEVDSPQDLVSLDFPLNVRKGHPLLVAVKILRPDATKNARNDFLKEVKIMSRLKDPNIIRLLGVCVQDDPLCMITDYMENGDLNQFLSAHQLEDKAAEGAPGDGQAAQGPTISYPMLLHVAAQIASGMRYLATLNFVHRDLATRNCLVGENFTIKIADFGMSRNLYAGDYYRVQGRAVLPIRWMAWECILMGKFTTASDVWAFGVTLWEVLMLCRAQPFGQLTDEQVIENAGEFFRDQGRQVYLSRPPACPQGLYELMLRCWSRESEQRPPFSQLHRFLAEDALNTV

Compound	Ki [1] [nM]	Ki [2] [nM]
Cc1ccc(C(=O)Nc2cncc(C(F)(F)F)c2)cc1[C@@H]1CCN(c2cncc(OCCO)c2)C1 [Example 103, (S)-3-(1-(5-(2-hydroxyethoxy)pyridin-3-yl)pyrrolidin-3-yl)-4-methyl-N-(5-(trifluoromethyl)pyridin-3-yl)benzamide]	< 5	< 5
Cc1ccc(C(=O)Nc2cncc(C(F)(F)F)c2)cc1[C@@H]1CCN(c2ncnc3sccc23)C1 [Example 106, (S)-4-methyl-3-(1-(thieno[2,3-d]pyrimidin-4-yl)pyrrolidin-3-yl)-N-(5-(trifluoromethyl)pyridin-3-yl)benzamide]	5 to 25	5 to 25
Cc1ccc(C(=O)Nc2cncc(C(F)(F)F)c2)cc1[C@@H]1CCN(c2ncnc3ccsc23)C1 [Example 107, (S)-4-methyl-3-(1-(thieno[3,2-d]pyrimidin-4-yl)pyrrolidin-3-yl)-N-(5-(trifluoromethyl)pyridin-3-yl)benzamide]	< 5	< 5
CNC(=O)c1cc2ncnc(N3CC[C@@H](c4cc(C(=O)Nc5cncc(C(F)(F)F)c5)ccc4C)C3)c2s1 [Example 108, (S)-N-methyl-4-(3-(2-methyl-5-((5-(trifluoromethyl)pyridin-3-yl)carbamoyl)phenyl)pyrrolidin-1-yl)thieno[3,2-d]pyrimidine-6-carboxamide]	< 5	< 5
COc1ccc(C(=O)Nc2cncc(C(F)(F)F)c2)cc1C1CCN(c2cnn3cccnc23)C1 (centres unmarked) [Example 112, 4-methoxy-3-(1-(pyrazolo[1,5-a]pyrimidin-3-yl)pyrrolidin-3-yl)-N-(5-(trifluoromethyl)pyridin-3-yl)benzamide]	< 5	5 to 25
O=C(Nc1cncc(C(F)(F)F)c1)c1ccc(OC(F)F)c(C2CCN(c3cncnc3)C2)c1 (centres unmarked) [Example 113, 4-(difluoromethoxy)-3-(1-(pyrimidin-5-yl)pyrrolidin-3-yl)-N-(5-(trifluoromethyl)pyridin-3-yl)benzamide]	< 5	< 5
O=C(Nc1cncc(C(F)(F)F)c1)c1ccc(C(F)F)c(C2CCN(c3cncnc3)C2)c1 (centres unmarked) [Example 120, 4-(difluoromethyl)-3-(1-(pyrimidin-5-yl)pyrrolidin-3-yl)-N-(5-(trifluoromethyl)pyridin-3-yl)benzamide]	5 to 25	25 to 100
Cc1ccc(C(=O)c2cncc(C(F)(F)F)c2)cc1[C@@H]1CCN(c2cnc3ccc(CO)cn23)C1 [Example 123, (S)-(3-(1-(6-(hydroxymethyl)imidazo[1,2-a]pyridin-3-yl)pyrrolidin-3-yl)-4-methylphenyl)(5-(trifluoromethyl)pyridin-3-yl)methanone]	< 5	< 5
Cn1nc(NC(=O)c2ccc(C(F)F)c(C3CCN(c4cncnc4)C3)c2)cc1C(C)(C)C (centres unmarked) [Example 124, N-(5-(tert-butyl)-1-methyl-1H-pyrazol-3-yl)-4-(difluoromethyl)-3-(1-(pyrimidin-5-yl)pyrrolidin-3-yl)benzamide]	< 5	5 to 25
Cc1ccc(C(=O)Nc2cncc(C(F)(F)F)c2)cc1[C@@H]1CCN(c2ncnc3cc(Br)sc23)C1 [Example 125, (S)-3-(1-(6-bromothieno[3,2-d]pyrimidin-4-yl)pyrrolidin-3-yl)-4-methyl-N-(5-(trifluoromethyl)pyridin-3-yl)benzamide]	5 to 25	5 to 25
Cc1ccc(C(=O)Nc2cncc(C(F)(F)F)c2)cc1[C@@H]1CCN(c2ncnc3cc(C(=O)N4CCN(C)CC4)sc23)C1 [Example 126, (S)-4-methyl-3-(1-(6-(4-methylpiperazine-1-carbonyl)thieno[3,2-d]pyrimidin-4-yl)pyrrolidin-3-yl)-N-(5-(trifluoromethyl)pyridin-3-yl)benzamide]	< 5	5 to 25
CNC(=O)c1cc(N2CCC(c3cc(C(=O)Nc4cncc(C(F)(F)F)c4)ccc3OC)C2)ccn1 (centres unmarked) [Example 127, 4-(3-(2-methoxy-5-((5-(trifluoromethyl)pyridin-3-yl)carbamoyl)phenyl)pyrrolidin-1-yl)-N-methylpicolinamide]	< 5	5 to 25
Cc1ccc(C(=O)Nc2cncc(C(F)(F)F)c2)cc1[C@@H]1CCN(c2nccn3cncc23)C1 [Example 128, (S)-3-(1-(imidazo[1,5-a]pyrazin-8-yl)pyrrolidin-3-yl)-4-methyl-N-(5-(trifluoromethyl)pyridin-3-yl)benzamide]	< 5	5 to 25

Other lines, results leading:

Ki [1] [nM]	Ki [2] [nM]	Compound
< 5	< 5	Cc1ccc(C(=O)Nc2cc(OC(F)F)ccn2)cc1[C@@H]1CCN(c2cnn3cccnc23)C1 [Example 91, N-[4-(difluoromethoxy)-2-pyridyl]-4-methyl-3-[(3S)-1-pyrazolo[1,5-a]pyrimidin-3-ylpyrrolidin-3-yl]benzamide]
< 5	5 to 25	Cc1ccc(C(=O)Nc2cc(OC(F)F)ccn2)cc1[C@@H]1CCN(c2cnccn2)C1 [Example 92, N-[4-(difluoromethoxy)-2-pyridyl]-4-methyl-3-[(3S)-1-pyrazin-2-ylpyrrolidin-3-yl]benzamide]
< 5	< 5	Cc1ccc(C(=O)Nc2cc(OC(F)F)ccn2)cc1[C@@H]1CCN(c2cnccc2C#N)C1 [Example 93, 3-[(3S)-1-(4-cyano-3-pyridyl)pyrrolidin-3-yl]-N-[4-(difluoromethoxy)-2-pyridyl]-4-methyl-benzamide]
< 5	5 to 25	Cc1ccc(C(=O)Nc2cc(OC(F)F)ccn2)cc1[C@@H]1CCN(c2cncc(C#N)n2)C1 [Example 94, (S)-3-(1-(6-cyanopyrazin-2-yl)pyrrolidin-3-yl)-N-(4-(difluoromethoxy)pyridin-2-yl)-4-methyl-benzamide]
< 5	< 5	CCc1cc(NC(=O)c2ccc(C)c([C@@H]3CCN(c4cnn5cccnc45)C3)c2)no1 [Example 95, (S)-N-(5-ethylisoxazol-3-yl)-4-methyl-3-(1-(pyrazolo[1,5-a]pyrimidin-3-yl)pyrrolidin-3-yl)benzamide]
< 5	< 5	CCc1cc(NC(=O)c2ccc(C)c([C@@H]3CCN(c4cnn5ccncc45)C3)c2)no1 [Example 96, (S)-N-(5-ethylisoxazol-3-yl)-4-methyl-3-(1-(pyrazolo[1,5-a]pyrazin-3-yl)pyrrolidin-3-yl)benzamide]
< 5	5 to 25	COc1cnc2c(N3CC[C@@H](c4cc(C(=O)Nc5cncc(C(F)(F)F)c5)ccc4C)C3)cnn2c1 [Example 97, (S)-3-(1-(6-methoxypyrazolo[1,5-a]pyrimidin-3-yl)pyrrolidin-3-yl)-4-methyl-N-(5-(trifluoromethyl)pyridin-3-yl)benzamide]
< 5	< 5	Cc1ccc(C(=O)Nc2cncc(OC(F)(F)F)c2)cc1[C@@H]1CCN(c2cnn3ccncc23)C1 [Example 98, (S)-4-methyl-3-(1-(pyrazolo[1,5-a]pyrazin-3-yl)pyrrolidin-3-yl)-N-(5-(trifluoromethoxy)pyridin-3-yl)benzamide]
< 5	5 to 25	CNc1ncc(N2CC[C@@H](c3cc(C(=O)Nc4cncc(C(F)(F)F)c4)ccc3C)C2)cn1 [Example 99, (S)-4-methyl-3-(1-(2-(methylamino)pyrimidin-5-yl)pyrrolidin-3-yl)-N-(5-(trifluoromethyl)pyridin-3-yl)benzamide]
< 5	5 to 25	Cc1ccc(C(=O)Nc2cncc(C(F)(F)F)c2)cc1[C@@H]1CCN(c2cn[nH]c2)C1 [Example 100, (S)-3-(1-(1H-pyrazol-4-yl)pyrrolidin-3-yl)-4-methyl-N-(5-(trifluoromethyl)pyridin-3-yl)benzamide]
< 5	5 to 25	Cc1ccc(C(=O)Nc2cncc(C(F)(F)F)c2)cc1[C@@H]1CCN(c2cnc3[nH]nc(CN(C)C)c3c2)C1 [Example 101, (S)-3-(1-(3-((dimethylamino)methyl)-1H-pyrazolo[3,4-b]pyridin-5-yl)pyrrolidin-3-yl)-4-methyl-N-(5-(trifluoromethyl)pyridin-3-yl)benzamide]
< 5	5 to 25	Cc1ccc(C(=O)Nc2cncc(C(F)(F)F)c2)cc1[C@@H]1CCN(c2cnc3[nH]cc(C(=O)NC4COC4)c3c2)C1 [Example 102, (S)-5-(3-(2-methyl-5-((5-(trifluoromethyl)pyridin-3-yl)carbamoyl)phenyl)pyrrolidin-1-yl)-N-(oxetan-3-yl)-1H-pyrrolo[2,3-b]pyridine-3-carboxamide]
